Laboratory results: patent US20110269817A1, “COMPOSITIONS AND METHODS RELATED TO SIRT1 FUNCTION” (The Regents of the University of California, priority 2008, published 2011)
Entries after “also recorded” stand apart in the source; their conditions may differ. Read-outs that look alike come from different tables or passages of the source.

Tests used:
[1] = test system: CLOCK-SIRT1 interaction; assay: CLOCK-SIRT1 interaction (coimmunoprecipitation) in transfected JEG3 cells; format: cell-based, human; details: treated 1, 2 and 6 h, 1 mM NAD+, 10 mM glucose, 1 mM pyruvate, 100 μM DFO, 100 μM resveratrol, 120 μM splitomicin
Protocol: The effect of various agents on the CLOCK-SIRT1 interaction was analyzed. […] JEG3 cells were cultured in BME containing 10% FBS and transfected with Myc-CLOCK, Myc-BMAL1, and Flag-SIRT1 constructs. Negative control (NC) represents cells transfected only with Myc-CLOCK and Myc-BMAL1. 24 h after transfection cells were replated, allowed to readhere for another 16 hours, and treated with indicated reagents for 1, 2 and 6 hours. Here the results with 6 h treatment are shown, the same results were obtained at 1 h and 2 h. Nuclear extracts were processed as previously described (Hirayama et al. 2007). This experiment was performed 3 times and a representative result is shown.
Legend: Lane 1: control (C); lane 2: 50% horse serum (HS); lane 3: 1 mM NAD^+ (NAD^+); lane 4: 10 mM glucose (Glc); lane 5: 1 mM pyruvate (Pyr); 6: 100 μM DFO (DF); lane 7: 100 μM resveratrol; (Res) lane 8:120 μM splitomicin (Split). Lane 9: negative control (NC).

[2] = test system: Sirt1−/− MEFs; assay: circadian gene expression in serum-shocked Sirt1−/− MEFs treated with SIRT1 inhibitors; format: cell-based, mouse
Protocol: (§1) MEFs were generated from WT or homozygous Sirt1−/− sibling mice and cultured in DMEM (4.5 g/l glucose) supplemented with 7.5% newborn bovine serum, 2.5% FBS, and antibiotics. JEG3 cells were grown in Basal Medium Eagle supplemented with 10% FBS and antibiotics.

[3] = test system: BMAL1 Lys537 acetylation; assay: BMAL1 Lys537 acetylation in JEG3 cells expressing Myc-CLOCK and Flag-Myc-BMAL1, HDAC inhibitor treatment; format: cell-based, human; details: NAM (10 mM) 16 hr
Protocol: (A) Class III HDAC inhibitor enhances BMAL1 Lys537 acetylation. JEG3 cells transfected with Myc-CLOCK and Flag-Myc-BMAL1 were treated with HDAC I and II inhibitor, TSA […], for 6 hr and HDAC III inhibitor, NAM (10 mM), for 16 hr before harvest. Immunoprecipitated BMAL1 proteins by FLAG antibody were subjected to SDS-PAGE and probed with acetylated BMAL1 or Myc antibodies.
(§2) Recently we have reported that BMAL1 is rhythmically acetylated by CLOCK and that this event is essential for control of circadian function (Hirayama et al., 2007). We have generated an antibody that specifically recognizes acetylated BMAL1 at Lys537 (FIG. 10). Because of the interplay between CLOCK and SIRT1, we suspected that the deacetylase that could regulate the dynamic levels of BMAL1 acetylation could be SIRT1. To identify which class of HDAC is responsible for deacetylation of BMAL1, we treated cultured cells expressing Myc-CLOCK and Flag-Myc-BMAL1 with class I and II inhibitor, trichostatin A (TSA), and/or class III inhibitor, NAM, for 6 hr and 16 hr, respectively. […] We then coexpressed BMAL1 with CLOCK and confirmed that the anti-AcBMAL1 antibody readily recognizes CLOCK-induced acetylation at Lys537 (FIG. 6B). […] We also confirmed that SIRT1 readily deacetylates BMAL1 in an in vitro deacetylation assay (FIG. 11).

[4] = biological target: T1, SIRT1 (Homo sapiens, UniProt Q96EB6); assay: BMAL1 deacetylation by SIRT1 in JEG3 cells transfected with Myc-CLOCK, Flag-Myc-BMAL1 and SIRT1-HA; format: cell-based; details: 1 mM NAD+ or 10 mM NAM for 16 hr
T1 construct: expressed in transfected cells; host or cells: JEG3
T1 sequence (Q96EB6 1-747): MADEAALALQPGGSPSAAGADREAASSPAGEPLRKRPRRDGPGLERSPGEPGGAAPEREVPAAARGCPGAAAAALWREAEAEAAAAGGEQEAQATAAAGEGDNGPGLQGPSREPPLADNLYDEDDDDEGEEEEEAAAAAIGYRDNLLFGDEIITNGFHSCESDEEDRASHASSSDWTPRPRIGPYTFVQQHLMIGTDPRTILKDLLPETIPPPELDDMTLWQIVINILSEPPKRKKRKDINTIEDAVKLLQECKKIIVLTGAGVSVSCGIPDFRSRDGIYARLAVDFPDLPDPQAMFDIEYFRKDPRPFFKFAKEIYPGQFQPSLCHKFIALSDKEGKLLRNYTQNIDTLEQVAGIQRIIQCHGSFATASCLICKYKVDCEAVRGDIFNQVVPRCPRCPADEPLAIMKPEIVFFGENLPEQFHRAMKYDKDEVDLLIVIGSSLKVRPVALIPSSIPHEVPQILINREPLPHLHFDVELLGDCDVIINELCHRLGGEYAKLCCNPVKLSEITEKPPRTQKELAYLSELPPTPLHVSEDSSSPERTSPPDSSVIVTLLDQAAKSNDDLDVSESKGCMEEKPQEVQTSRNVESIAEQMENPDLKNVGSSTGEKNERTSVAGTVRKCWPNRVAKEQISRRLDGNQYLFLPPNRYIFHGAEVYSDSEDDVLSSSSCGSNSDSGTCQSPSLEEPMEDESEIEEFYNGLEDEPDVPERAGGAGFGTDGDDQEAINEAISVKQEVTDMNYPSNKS
Protocol: (D) Deacetylation of BMAL1 by SIRT1 is NAD^+ dependent manner. JEG3 cells transfected with Myc-CLOCK and Flag-Myc-BMAL1 and SIRT1-HA were treated with 1 mM NAD^+ or 10 mM NAM for 16 hr before harvest. Immunoprecipitated BMAL1 proteins by FLAG antibody were probed with acetylated BMAL1 antibody. SIRT1 protein amount was detected by SIRT1 antibody.
as §2

[5] = test system: histone H3 Lys9/Lys14 acetylation at the Dbp transcription start site; assay: ChIP assay of histone H3 (Lys9/Lys14) acetylation at dbp TSS in serum-shocked MEFs; format: cell-based, mouse; details: WT MEFs after serum shock, 10 mM NAM or
Protocol: (B-D) Crosslinked cell extracts were isolated from MEF without treatment (B) or with SIRT1 inhibitors, 10 mMNAM (C), or […] (D) at indicated time points after serum shock, subjected to ChIP assay, and analyzed by quantitative PCR with dbp TSS primers (See FIG. 4C). Results of semiquantitative PCR are also shown at the bottom of each experiment. The value at time 16 in MEFs without treatment was set to 1. All data presented are the means±SEM of three independent samples.
Conventional ChIP assay was used for histones from MEFs (Yamamoto et al., 2004). For nonhistone proteins, dual crosslinking ChIP assay (Nowak et al., 2005) was used with slight modifications. After serum shock, cells were washed three times with room temperature PBS, then PBS/1 mM MgCl2 was added. Disuccinimidyl Glutalate (DSG) was added to a final concentration of 2 mM for crosslinking. After 45 min at room temperature, formaldehyde was added to a final concentration of 1% (v/v) and cells incubated for 15 min. […]
We analyzed the acetylation at Lys9 and Lys14 of histone H3 because we had previously found these to be preferential sites of CLOCK's HAT activity (Doi et al., 2006), and also because SIRT1 deacetylase function was described to be targeted to these lysines (Imai et al., 2000). […]

[6] = test system: dbp expression levels in WT MEFs; assay: dbp circadian expression in serum-shocked WT MEFs treated with SIRT1 inhibitors, quantitative PCR; format: cell-based, mouse
Protocol: (A) Dbp expression levels in MEFs either treated with SIRT1 inhibitors (10 mMNAM or […]) or not were analyzed by quantitative PCR. The value at time 20 in MEFs without treatment was set to 1.
as §1
Each quantitative real-time RT-PCR was performed using the Chromo4 real time detection system (BIO-RAD). The PCR primers for mDbp mRNA, mPer2 mRNA, mCry 1 mRNA, 18S rRNA, Dbp UP, Dbp E-box, Dbp 30R, and mSIRT1 mRNA were described (Ripperger and Schibler, 2006; Rodgers et al., 2005; Yamamoto et al., 2004). PCR primers for Dbp TSS were designed using Real-Time PCR Primer Design (https://www.genscript.com/ssl-bin/app/primer), and the sequences are available upon request. For a […] PCR, 50 ng of cDNA template was mixed with the primers to final concentrations of 200 nM and […] of iQ SYBR Green Supermix (BIO-RAD), respectively. The reaction was first incubated at 95° C. for 3 min, followed by 40 cycles at 95° C. for 30 s and 60° C. for 1 min.

Row | Compound | modulation of the CLOCK-SIRT1 interaction [1] | BMAL1 deacetylation by SIRT1 [4] | circadian acetylation of histone H3 Lys9/Lys14 at Dbp TSS [5] | also measured
1 | CC(=O)N(O)CCCCCNC(=O)CCC(=O)N(O)CCCCCNC(=O)CCC(=O)N(O)CCCCCN [desferroxamine] | not significantly modulated | – | – | –
2 | NC(=O)c1cccnc1 [NAM, nicotinamide] | – | significantly attenuated | loss in the circadian oscillation of acetylation, generating a noncyclic, high level of Lys9/Lys14 acetylation | effect of SIRT1 inhibitors on circadian gene expression in Sirt1−/− MEFs [2]: no effect; acetylation of BMAL1 at Lys537 [3]: significantly increased; dbp expression pattern (circadian oscillation) ([6]; WT MEFs after serum shock, 10 mM NAM or splitomicin): significantly broader phase and higher amplitude in the oscillation; also recorded: loss in stringency of circadian gene expression
3 | NC(=O)c1ccc[n+]([C@@H]2O[C@H](COP(=O)([O-])OP(=O)(O)OC[C@H]3O[C@@H](n4cnc5c(N)ncnc54)[C@H](O)[C@@H]3O)[C@@H](O)[C@H]2O)c1 [NAD^+, nicotinamide adenine dinucleotide] | not significantly modulated | responsive | – | –
4 | O=C1CCc2c(ccc3ccccc23)O1 [splitomicin] | not significantly modulated | – | loss in the circadian oscillation of acetylation, generating a noncyclic, high level of Lys9/Lys14 acetylation | effect of SIRT1 inhibitors on circadian gene expression in Sirt1−/− MEFs ([2]; Sirt1−/− MEFs, data not shown): no effect; dbp expression pattern (circadian oscillation) [6]: significantly broader phase and higher amplitude in the oscillation; also recorded: loss in stringency of circadian gene expression
5 | Oc1ccc(C=Cc2cc(O)cc(O)c2)cc1 [resveratrol] | not significantly modulated | – | – | –
